Data as given in US5908868A, “Retinol derivatives useful for enhancing immune response” (priority 1995, dated 1999).
Entries after “also recorded” stand apart in the source; their conditions may differ.

Experiments:
[1] = system: 5/2 cells; assay: Growth (DNA synthesis, [3H]thymidine) of lymphoblastoid 5/2 cells in serum-free medium; format: cell-based, human; conditions: ITLB medium without retinol
Method: Washed 5/2 cells (5,000/well) were incubated for 72 hours in HB101 medium with the indicated amounts of retinoids. DNA synthesis was measured by [^3 H] thymidine uptake. The measurements were done in triplicate. The SDs were <15%.
In FIGS. 4B to 4D, 5/2 cells were washed twice and seeded at a concentration of 150,000 cells/ml in HB 101 medium. Triplicate samples of 100 μl of cell suspension were removed daily and pulsed for 6 hours with [^3 H] thymidine. Means are shown. The SDs were never >20%.
P3 was purified as described in the Experimental Details section. 5/2 cells (5,000/well) were incubated for 72 hours in HB101 medium and refed with the indicated amount of retinoid daily. DNA synthesis was measured by [^3 H]-thymidine uptake. P3 is bioactive down to a concentration of 10-^8 M (FIG. 8). […] This is due either to chemical instability or to a more rapid metabolic degradation of P3 by the cells.
The assay was done in 96-well microtiter plates in a final volume of 200 ul/well. The cells were cultured for 72 hours and cell growth determined by [^3 H] thymidine (0.8 μCi/well)labeling for the last 16 hours. Retinoids were added at the indicated concentrations at the initiation of culture and every 24 hours thereafter.
The human EBV-transformed B-cell line 5/2 was established from the peripheral blood of a healthy donor. The cell line was grown in RPMI 1640 supplemented with 8% fetal calf serum, L-glutamine (2 mM), and antibiotics. The cell line was tested regularly for mycoplasma infections and was consistently negative.
The assay system is a modification of the assay developed by Blazar et al. (12). […] Assays were done in 96 well microtiter plates in a final volume of 200 μl/well or in 25 cm^2 tissue culture flasks. The cells in the microtiter plates were cultured for 72 hours and cell growth was determined by labeling for the last 16 hours with 0.8 μCi/well of [^3 H]thymidine (sp. act. 6.7 Ci/mmol). Growth in the culture flasks was determined in three aliquots of 100 μl taken at 24 hours intervals and cultured in the presence of 0.8 μCi of [^3 H]thymidine for an additional 6 hour period. To determine the viable cell number, nine aliquots per time point were differentially counted in a Neubauer chamber in the presence of trypan blue.
5/2 cells were grown in the absence of retinol in a medium containing the basic RPMI 1640 amino acid/salt mixture, insulin (5 μg/ml), transferrin (5 μg/ml), albumin (0.1%) and linoleic acid (10^-6 M) (ITLB). […] The dose-response curve shown in FIG. 26 indicates an effective concentration of 10^-7 M.

[2] = system: T cells; assay: T cell activation/proliferation; format: cell-based, murine; conditions: with mitogen/anti-CD3
Method: They were seeded into 96-well flat-bottom plates at varying cellular densities in a final volume of 100 μl. In control experiments, cells were cultured in medium containing 10% FCS or 3% human serum and 5×10^-5 M 2 ME. […] Cultures were carried out in duplicate. Plates were incubated at 37° C. in a humidified 5% CO2 atmosphere. Cellular proliferation was determined by [^3 H] thymidine uptake (0.5 uCi/well; New England Nuclear, Boston, Mass.) after the incubation times indicated for each experiment with a 4 hour labeling pulse. Cells were harvested onto glass filter and [^3 H]TdR incorporation was determined by liquid scintillation counting. The data presented are the means of duplicate or six replicate cultures. The restriction to duplicate measurements was necessary to conserve scarce 14HRR. […] Each experiment was repeated at least twice.

[3] = system: lymphoblastoid 5/2 cells; assay: Conversion of 13,14DHR to 14HRR by lymphoblastoid cells; format: in vitro ADME, human; conditions: 10^-6 M, 1 and 2 hours, ITLB
Method: FIGS. 25A through 25D. 13,14DHR can be converted to 14HRR by lymphoblastoid cells. 200,000 5/2 cells/ml were incubated with or without 10^-6 M 13,14DHR added in serum-free ITLB medium. After 1 and 2 hours, cells pellets corresponding to 10 ml of culture were delipidated and the corresponding lipid fractions separated on an analytical C18 reversed-phase column according to FIG. 20. Peaks were identified according to their retention times and their UV absorption patterns.
Lymphoblastoid 5/2 cells devoid of retinol were cultured in the presence or absence of 10^-6 M 13,14DHR for 1 and 2 hours in ITLB medium. The retinoids extracted from the cell pellets were separated by HPLC according to FIG. 20. […] There was no 14HRR measurable in control cultures.

[4] = system: lymph node T cells; assay: Proliferation of anti-CD3 activated lymph node T cells; format: cell-based, BALB/c mouse
Description: Growth curves of lymph node T cells depleted of antigen-presenting cells (FIG. 17A) with and without 10^-6 M retinol at 2×10^5 and 5×10^4 cells/well. (FIG. 17B) Dose-responses elicited by different retinoids in cultures of lymph node T cells depleted of antigen-presenting cells. Also shown are the growth curves of CD4^+ (FIG. 17C) and CD8^+ T lymphocytes (FIG. 17D) in the presence of either retinol, 14HRR, human serum or in their absence.
T lymphocytes, purified as described, 5×10^4 well, were activated with immobilized anti-CD3 antibody in ITLB medium. The indicated amounts of retinoids or human serum were added at initiation of cultures. […] 14HRR was added every 12 hours. DNA synthesis was measured by a 4 hour pulse with tritiated thymidine. SDs were ≤17%.
Mature T cells were obtained from pooled intestinal, axillary, inguinal and submandibular lymph nodes of 4 to 10-week-old BALB/c mice. To fractionate cells into CD4 and CD8 subsets and at the same time remove APC, a combination of adherence and complement lysis was used as follows:
Cells were cultured in serum-free medium, referred to as ITLB, containing RPMI 1640 supplemented with 8×10^-7 M insulin (5 μg/ml), 7×10^-8 M transferrin (5 μg/ml), 2×10^-6 M linoleic acid, 2×10^-6 M delipidated BSA (0.12 mg/ml), 2 mM L-glutamine, 1 mM sodium pyruvate and antibiotics. They were seeded into 96-well flat-bottom plates at varying cellular densities in a final volume of 100 μl. In control experiments, cells were cultured in medium containing 10% FCS or 3% human serum and 5×10^-5 M 2 ME. T cells and thymocytes were activated with immobilized, purified anti-mab CD3e or by the addition of Con A in the presence or absence of different concentrations of retinoids. Unless indicated otherwise, retinoids were replenished every 12 hours to maintain a reasonably constant concentration of these labile compounds in culture. The optimal concentration for stimulation of T cells was determined for each batch of anti-CD3 mAb and Con A. The optimal range of Con A was particularly narrow in serum-free medium (0.5-0.2 μg/ml) and varied with the cell density used. […] Cultures were carried out in duplicate. Plates were incubated at 37° C. in a humidified 5% CO2 atmosphere. Cellular proliferation was determined by [^3 H] thymidine uptake (0.5 uCi/well; New England Nuclear, Boston, Mass.) after the incubation times indicated for each experiment with a 4 hour labeling pulse. Cells were harvested onto glass filter and [^3 H]TdR incorporation was determined by liquid scintillation counting. The data presented are the means of duplicate or six replicate cultures. The restriction to duplicate measurements was necessary to conserve scarce 14HRR. They were within 20% of each other. Each experiment was repeated at least twice.

[5] = system: lymphoblastoid cells (LCL); conditions: serum-free medium; cited from earlier work

SMILES | restoration of capacity to proliferate [1] | substitution for retinol in T cell activation [2] | substitution for retinol in T cell activation ([2]; listed as 13,14 DHR) | conversion to 14HRR [3] | stimulatory activity at 10^-5 M ([4]; 10^-5 M) | stimulation of lymph node T cells ([4]; anti-CD3) | substitution for retinol in T cell activation ([2]; listed as retinoic acid) | support of growth of LCL [5]
CC(C=CC1=C(C)CCCC1(C)C)=CC=CC(C)(O)C(O)CO (stereo not drawn) [13,14DHR, 13,14-dihydroxy-retinol] | proliferation was restored as well | can effectively substitute for retinol | capable of being used in lieu of retinol | produced 14HRR |  |  |  | 
CC1=C(/C=C/C(C)=C/C=C/C(C)=C/C(=O)O)C(C)(C)CCC1 [all-trans retinoic acid] |  | not |  |  | very modest stimulatory activity | nearly inert | cannot be satisfied; also recorded: neither respond to externally provided retinoic acid | not
